Laboratory results published in patent US7612065B2, “Inhibitors of c-JUN N-terminal kinases (JNK)” (priority 2007, dated 2009).

Target: T1, JNK3 (Homo sapiens, UniProt P53779)
T1 construct: One such construct encodes amino acid residues Ser40-Glu402 of JNK3α1 and is preceded by Met and Gly residues; Met-Gly (initiation methionine plus glycine added for the NcoI site); made in house; host or cells: E. coli BL21 (DE3)
Test: JNK inhibition assay: spectrophotometric coupled-enzyme assay with activated JNK3
Type: biochemical
Conditions: activated JNK3 10 nM, 10 μM ATP, 200 μM EGF receptor peptide, 30° C., competitive inhibition model
Method in brief: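 Activated (doubly phosphorylated, MKK7(DD)-activated) human JNK3, 10 nM, preincubated 10 min at 30 °C with inhibitor in 0.1 M HEPES pH 7.5, 10 mM MgCl2, 200 μM EGF receptor peptide, PK/LDH-coupled. Started with 10 μM ATP; A340 decrease followed at 30 °C. Ki from competitive inhibition model fit.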

T1 sequence (P53779 40-402): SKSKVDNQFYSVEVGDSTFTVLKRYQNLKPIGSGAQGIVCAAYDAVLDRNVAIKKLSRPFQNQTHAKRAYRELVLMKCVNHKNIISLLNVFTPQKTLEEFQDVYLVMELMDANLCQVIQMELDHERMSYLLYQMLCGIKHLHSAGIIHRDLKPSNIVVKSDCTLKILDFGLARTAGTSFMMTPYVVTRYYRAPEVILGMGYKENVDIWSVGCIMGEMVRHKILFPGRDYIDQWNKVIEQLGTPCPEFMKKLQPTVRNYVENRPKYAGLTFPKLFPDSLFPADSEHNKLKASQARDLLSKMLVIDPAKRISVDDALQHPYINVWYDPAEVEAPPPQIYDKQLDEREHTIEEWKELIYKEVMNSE

Row | Structure (SMILES) | Ki
1 | CCNC(=O)c1ccc2c(c1)N(Cc1cc(F)cc3c1OCOC3)C(=O)/C2=N\O [Compound 291] | ≥ 1000 nM
2 | O=C(NCCc1c[nH]cn1)c1ccc2c(c1)N(Cc1cc(F)cc3c1OCOC3)C(=O)/C2=N\O [Compound 292] | ≥ 1000 nM
3 | CCCNC(=O)c1ccc2c(c1)N(Cc1cc(F)cc3c1OCOC3)C(=O)/C2=N\O [Compound 293] | ≥ 1000 nM
4 | CC(C)CCNC(=O)c1ccc2c(c1)N(Cc1cc(F)cc3c1OCOC3)C(=O)/C2=N\O [Compound 294] | ≥ 1000 nM
5 | CN(C)CCNC(=O)c1ccc2c(c1)N(Cc1cc(F)cc3c1OCOC3)C(=O)/C2=N\O [Compound 295] | ≥ 1000 nM
6 | CCOC(=O)CCNC(=O)c1ccc2c(c1)N(Cc1cc(F)cc3c1OCOC3)C(=O)/C2=N\O [Compound 296] | ≥ 1000 nM
7 | CN1CCCC1CCNC(=O)c1ccc2c(c1)N(Cc1cc(F)cc3c1OCOC3)C(=O)/C2=N\O (stereo not shown) [Compound 297] | ≥ 1000 nM
8 | O=C(NCCN1CCCCC1)c1ccc2c(c1)N(Cc1cc(F)cc3c1OCOC3)C(=O)/C2=N\O [Compound 298] | ≥ 1000 nM
9 | C[Si](C)(C)C#Cc1cccc2c1/C(=N/O)C(=O)N2Cc1cc(F)cc2c1OCOC2 [Compound 299] | ≥ 1000 nM
10 | O=C1/C(=N\O)c2cc(NCc3ccccc3)ccc2N1Cc1cc(F)cc2c1OCOC2 [Compound 300] | ≥ 1000 nM
11 | Cc1cccc2c1/C(=N/O)C(=O)N2Cc1cc(F)cc2c1OCOC2 [Compound 301] | < 1000 nM
12 | O=C(c1ccccc1)c1ccc2c(c1)/C(=N/O)C(=O)N2Cc1cc(F)cc2c1OCOC2 [Compound 302] | ≥ 1000 nM
13 | O=C(O)c1ccc(CNc2ccc3c(c2)/C(=N/O)C(=O)N3Cc2cc(F)cc3c2OCOC3)cc1 [Compound 303] | ≥ 1000 nM
14 | O=C1/C(=N\O)c2cc(NCc3ccc(O)cc3)ccc2N1Cc1cc(F)cc2c1OCOC2 [Compound 304] | ≥ 1000 nM
15 | COc1ccc(CNc2ccc3c(c2)/C(=N/O)C(=O)N3Cc2cc(F)cc3c2OCOC3)cc1O [Compound 305] | ≥ 1000 nM
16 | O=C1/C(=N\O)c2c(CCc3ccccc3)cccc2N1Cc1cc(F)cc2c1OCOC2 [Compound 306] | ≥ 1000 nM
17 | C=Cc1cccc2c1/C(=N/O)C(=O)N2Cc1cc(F)cc2c1OCOC2 [Compound 307] | < 1000 nM
18 | CC(C)CCN(CCC(C)C)c1ccc2c(c1)/C(=N/O)C(=O)N2Cc1cc(F)cc2c1OCOC2 [Compound 308] | ≥ 1000 nM
19 | O=C(O)CCCN(CCCC(=O)O)c1ccc2c(c1)/C(=N/O)C(=O)N2Cc1cc(F)cc2c1OCOC2 [Compound 309] | ≥ 1000 nM
20 | O=C1/C(=N\O)c2cc(N(CC3CCCCC3)CC3CCCCC3)ccc2N1Cc1cc(F)cc2c1OCOC2 [Compound 310] | ≥ 1000 nM
21 | CC(C)CNc1ccc2c(c1)/C(=N/O)C(=O)N2Cc1cc(F)cc2c1OCOC2 [Compound 311] | ≥ 1000 nM
22 | O=C1/C(=N\O)c2cc(N(CCCc3ccccc3)CCCc3ccccc3)ccc2N1Cc1cc(F)cc2c1OCOC2 [Compound 312] | ≥ 1000 nM
23 | O=C1/C(=N\O)c2ccc(-c3ccc(F)cc3F)cc2N1Cc1cc(F)cc2c1OCOC2 [Compound 313] | < 1000 nM
24 | O=C1/C(=N\O)c2ccc(-c3ccccc3C(F)(F)F)cc2N1Cc1cc(F)cc2c1OCOC2 [Compound 314] | ≥ 1000 nM
25 | O=Cc1ccccc1-c1ccc2c(c1)N(Cc1cc(F)cc3c1OCOC3)C(=O)/C2=N\O [Compound 315] | < 1000 nM
26 | Cc1ccccc1-c1ccc2c(c1)N(Cc1cc(F)cc3c1OCOC3)C(=O)/C2=N\O [Compound 316] | < 1000 nM
27 | CC(=O)Nc1cccc(-c2ccc3c(c2)N(Cc2cc(F)cc4c2OCOC4)C(=O)/C3=N\O)c1 [Compound 317] | < 1000 nM
28 | O=C1/C(=N\O)c2ccc(-c3cc4ccccc4o3)cc2N1Cc1cc(F)cc2c1OCOC2 [Compound 318] | < 1000 nM

Row | Structure (SMILES) | Ki
29 | Cc1cc(F)ccc1C(=O)c1ccc2c(c1)/C(=N/O)C(=O)N2Cc1cc(F)cc2c1OCOC2 [Compound 319] | < 1000 nM
30 | O=C(Nc1ccc2c(c1)N(Cc1cc(F)cc3c1OCOC3)C(=O)/C2=N/O)c1cccc(Oc2ccccc2)c1 [Compound 320] | ≥ 1000 nM
31 | COc1ccc(C(=O)Nc2ccc3c(c2)N(Cc2cc(F)cc4c2OCOC4)C(=O)/C3=N/O)cc1OCc1ccccc1 [Compound 321] | < 1000 nM
32 | CC(=O)OC(C(=O)Nc1ccc2c(c1)N(Cc1cc(F)cc3c1OCOC3)C(=O)/C2=N/O)c1ccccc1 (stereo not shown) [Compound 322] | ≥ 1000 nM
33 | CCC(C(=O)Nc1ccc2c(c1)N(Cc1cc(F)cc3c1OCOC3)C(=O)/C2=N/O)c1ccccc1 (stereo not shown) [Compound 323] | < 1000 nM
34 | COc1ccc(CC(=O)Nc2ccc3c(c2)N(Cc2cc(F)cc4c2OCOC4)C(=O)/C3=N/O)cc1OC [Compound 324] | ≥ 1000 nM
35 | CCc1cccc2c1/C(=N/O)C(=O)N2Cc1cc(F)cc2c1OCOC2 [Compound 325] | ≥ 1000 nM
36 | C/C=C/c1cccc2c1/C(=N/O)C(=O)N2Cc1cc(F)cc2c1OCOC2 [Compound 326] | < 1000 nM
37 | Nc1cccc(-c2ccc3c(c2)N(Cc2cc(F)cc4c2OCOC4)C(=O)/C3=N\O)c1 [Compound 327] | < 1000 nM
38 | O=C(c1ccc(F)cc1)c1ccc2c(c1)/C(=N/O)C(=O)N2Cc1cc(F)cc2c1OCOC2 [Compound 328] | ≥ 1000 nM
39 | COc1ccc(-c2ccc3c(c2)N(Cc2cc(F)cc4c2OCOC4)C(=O)/C3=N\O)cc1 [Compound 329] | ≥ 1000 nM
40 | CC(=O)c1ccc(-c2ccc3c(c2)N(Cc2cc(F)cc4c2OCOC4)C(=O)/C3=N\O)cc1 [Compound 330] | < 1000 nM
41 | Cc1ccc(-c2ccc3c(c2)N(Cc2cc(F)cc4c2OCOC4)C(=O)/C3=N\O)cc1C [Compound 331] | < 1000 nM
42 | COc1ccc(-c2ccc3c(c2)N(Cc2cc(F)cc4c2OCOC4)C(=O)/C3=N\O)cc1OC [Compound 332] | < 1000 nM
43 | Cc1ccc(-c2ccc3c(c2)N(Cc2cc(F)cc4c2OCOC4)C(=O)/C3=N\O)cc1 [Compound 333] | ≥ 1000 nM
44 | CC(C)c1ccc(-c2ccc3c(c2)N(Cc2cc(F)cc4c2OCOC4)C(=O)/C3=N\O)cc1 [Compound 334] | ≥ 1000 nM
45 | O=C(O)CCc1ccc(-c2ccc3c(c2)N(Cc2cc(F)cc4c2OCOC4)C(=O)/C3=N\O)cc1 [Compound 335] | < 1000 nM
46 | CC(C)=Cc1cccc2c1/C(=N/O)C(=O)N2Cc1cc(F)cc2c1OCOC2 [Compound 336] | < 1000 nM
47 | CCCCc1cccc2c1/C(=N/O)C(=O)N2Cc1cc(F)cc2c1OCOC2 [Compound 337] | < 1000 nM
48 | COc1ccc(C(=O)Nc2ccc3c(c2)N(Cc2cc(F)cc4c2OCOC4)C(=O)/C3=N\O)cc1 [Compound 338] | ≥ 1000 nM
49 | COc1ccc(C(=O)Nc2ccc3c(c2)N(Cc2cc(F)cc4c2OCOC4)C(=O)/C3=N\O)cc1OC [Compound 339] | ≥ 1000 nM
50 | COc1cccc(OC)c1C(=O)Nc1ccc2c(c1)N(Cc1cc(F)cc3c1OCOC3)C(=O)/C2=N\O [Compound 340] | ≥ 1000 nM
51 | O=C(Nc1ccc2c(c1)N(Cc1cc(F)cc3c1OCOC3)C(=O)/C2=N\O)c1ccccc1F [Compound 341] | < 1000 nM
52 | O=C(Nc1ccc2c(c1)N(Cc1cc(F)cc3c1OCOC3)C(=O)/C2=N\O)c1ccccc1Cl [Compound 342] | < 1000 nM
53 | O=C(Nc1ccc2c(c1)N(Cc1cc(F)cc3c1OCOC3)C(=O)/C2=N\O)c1ccccc1Br [Compound 343] | < 1000 nM
54 | CCC(=O)Nc1ccc2c(c1)N(Cc1cc(F)cc3c1OCOC3)C(=O)/C2=N\O [Compound 344] | < 1000 nM
55 | CC(C)CC(=O)Nc1ccc2c(c1)N(Cc1cc(F)cc3c1OCOC3)C(=O)/C2=N\O [Compound 345] | < 1000 nM
